Key:
[1] = tested on: HepG2 cells; assay: MTT assay, compounds related to LD030 on HepG2 cells; type: cell-based, human; settings: 48 hours; for inhibition at 0.1 µM / inhibition at 1 µM / inhibition at 10 µM / inhibition at 100 µM: Homo sapiens, HepG2, read-out: Effects on HepG2 Cells (inhibitory percentage)
Method: (§1) MTT assay was used to detect cell viability after being treated with different compounds of the present invention related to LD030. The cell lines treated were on non-small lung cancer cell line A549, HepG2 cells and Panc1 cells.
(§2) MTT preservation solution preparation: 0.5 g MTT was dissolved in 100 ml of phosphate buffer solution (PBS), and bacteria contaminates were removed with a 0.22 μm membrane filter to obtain 0.5% MTT solution, which was stored in the dark at −20° C.
(§3) MTT working solution preparation: MTT preservation solution was diluted 10 times with sterile PBS to obtain MTT working solution.
(§4) 1640 complete medium preparation: 1640 base medium was added with an amount of fetal bovine serum (FBS) so that the medium contains 10% FBS by volume. Then an amount of double-antibody (i.e., penicillin and streptomycin) was added to make final concentration of penicillin at 100 units/ml and streptomycin at 100 ug/ml.
(§5) The experimental procedure is as follows:
(§6) (1) Take trypsin digested logarithmic phase cells and adjust the concentration of the cell suspension to 6×10^4 cell/ml, and then add 100 ul suspension of the cells under the test to each well on a 96-well plate and adjusted to a density of 6000 cells/well. The edge orifice is filled with sterile PBS.
(§7) (2) Placed the 96-well plate into a 37° C. incubator with 5% CO2 and incubate it overnight.
(§8) (3) Dissolve the test compounds in 200 ul DMSO to get a 5 mg/ml solution and dilute it to get 100 uM, 10 uM, 1 uM and 0.1 uM solutions. Add 100 ul of a solution to each of three repeat wells. Set a control well which has cells but without the compound of the present invention and a blank cell which contains no cells.
(§9) (4) Put the 96-well plate into a 37° C. incubator with 5% CO2 and incubate it for 48 hours. Examine the cells daily under a microscope.
(§10) (5) After being cultured for 48 hours, centrifuge and discard the culture liquid. Add 100 ul MTT working solution to each well, and continue incubating for 4 h.
(§11) (6) Terminate the culture, and carefully remove the culture medium. Then add 100 ul DMSO to each well and shake it at a low speed in a shaker for 10 min to make all crystals fully dissolved. The absorbance value of each well was measured by an enzyme-linked immunosorbent detector at the OD570 nm, and the inhibition rate of the different compounds with different concentration on cell growth can be obtained.

[2] = tested on: Panc1 cells; assay: MTT assay, compounds related to LD030 on Panc1 cells; type: cell-based, human; settings: 48 hours; for inhibition at 0.1 µM / inhibition at 1 µM / inhibition at 10 µM / inhibition at 100 µM: Homo sapiens, PANC-1, read-out: Effects on Panc1 Cells (inhibitory percentage)
Method: as §1, §2, §3, §4, §5, §6, §7, §8, §9, §10, §11

[3] = tested on: non-small lung cancer cell line A549; assay: MTT assay, compounds related to LD030 on A549 cells; type: cell-based; settings: for Effects on A549 Cells (inhibitory percentage) / inhibition at 0.1 µM / inhibition at 1 µM / inhibition at 10 µM / inhibition at 100 µM: 48 hours; for inhibition at 0.1 µM / inhibition at 1 µM / inhibition at 10 µM / inhibition at 100 µM: Homo sapiens, A549, read-out: Effects on A549 Cells (inhibitory percentage)
Method: as §1, §2, §3, §4, §5, §6, §7, §8, §9, §10, §11

Row | SMILES | Effects on HepG2 Cells (inhibitory percentage) ([1]; 0.1 μM) [%] | Effects on HepG2 Cells (inhibitory percentage) ([1]; 1 μM) [%] | Effects on HepG2 Cells (inhibitory percentage) ([1]; 10 μM) [%] | Effects on HepG2 Cells (inhibitory percentage) ([1]; 100 μM) [%] | Effects on Panc1 Cells (inhibitory percentage) ([2]; 0.1 μM) [%] | Effects on Panc1 Cells (inhibitory percentage) ([2]; 1 μM) [%] | Effects on Panc1 Cells (inhibitory percentage) ([2]; 10 μM) [%] | Effects on Panc1 Cells (inhibitory percentage) ([2]; 100 μM) [%] | Effects on A549 Cells (inhibitory percentage) ([3]; 0.1 μM) [%] | Effects on A549 Cells (inhibitory percentage) ([3]; 1 μM) [%] | Effects on A549 Cells (inhibitory percentage) ([3]; 10 μM) [%] | Effects on A549 Cells (inhibitory percentage) ([3]; 100 μM) [%] | inhibition at 0.1 µM ([2]; 0.1 μM) [%] | inhibition at 1 µM ([2]; 1 μM) [%] | inhibition at 10 µM ([2]; 10 μM) [%] | inhibition at 100 µM ([2]; 100 μM) [%] | inhibition at 0.1 µM ([3]; 0.1 μM) [%] | inhibition at 1 µM ([3]; 1 μM) [%] | inhibition at 10 µM ([3]; 10 μM) [%] | inhibition at 100 µM ([3]; 100 μM) [%] | further results
1 | CC(=O)OC(CCC(C)C1CC[C@@]2(C)C34CC[C@H]5C(C)(C)[C@@H](OC(C)=O)CC[C@]5(C)C3(CC[C@]12C)O4)C(C)(C)OC(C)=O (stereo partly drawn) [LD023] | 26.53 | 27.64 | 19.13 | 23.00 | −5.92 | −1.12 | −2.56 | 25.26 | 8.01 | 8.30 | 6.11 | 12.70 |  |  |  |  |  |  |  |  | 
2 | CC(=O)O[C@H]1CC[C@@]2(C)[C@@H](CCC34OC32CC[C@]2(C)C(C(C)CCC(O)C(C)(C)O)CC[C@@]42C)C1(C)C (stereo partly drawn) [LD027] |  |  |  |  |  |  |  |  |  |  |  |  | 2.21 | 10.1 | 16.7 | 28.7 | -1.4 | -4.98 | 12.9 | 58.6 | 
3 | CC(C)=CCC[C@@H](C)[C@H]1CC[C@@]2(C)C3=C(CC[C@]12C)[C@@]1(C)CCC(=O)C(C)(C)[C@@H]1CC3 [LD 012] | 10.53 | −15.82 | −1.79 | 47.72 | 5.68 | 5.68 | 10.20 | 39.54 | 1.31 | 28.04 | 39.34 | 91.76 |  |  |  |  |  |  |  |  | inhibition rate on A549 ([3]; concentration not given): more than 90%
4 | CC(=O)OC(CCC(C)C1CC[C@@]2(C)C3=C(CC[C@]12C)[C@@]1(C)CCC(=O)C(C)(C)[C@@H]1CC3)C(C)(C)OC(C)=O (stereo partly drawn) [LD 014] |  |  |  |  |  |  |  |  |  |  |  |  | -5.26 | -3.05 | 3.89 | 24.1 | 21.3 | 9.46 | 3.02 | 34.6 | inhibition at 0.1 µM ([1]; 0.1 μM): 0.64%; inhibition at 1 µM ([1]; 1 μM): -20.7%; inhibition at 10 µM ([1]; 10 μM): 2.93%; inhibition at 100 µM ([1]; 100 μM): 61.4%
5 | CC(=O)O[C@H]1CC[C@]2(C)C3=C(CC[C@H]2C1(C)C)[C@]1(C)CCC(C(C)CCC(O)C(C)(C)O)[C@@]1(C)CC3 (stereo partly drawn) [LD 021] |  |  |  |  |  |  |  |  |  |  |  |  | -12.6 | -4.96 | 2.16 | 48.8 | 3.13 | 1.31 | 1.53 | 45.5 | inhibition at 0.1 µM ([1]; 0.1 μM): 12.7%; inhibition at 1 µM ([1]; 1 μM): 13.1%; inhibition at 10 µM ([1]; 10 μM): 12.7%; inhibition at 100 µM ([1]; 100 μM): 24.6%
6 | CC(=O)OC(CCC(C)C1CC[C@@]2(C)C3=C(CC[C@]12C)[C@@]1(C)CC[C@H](OC(C)=O)C(C)(C)[C@@H]1CC3)C(C)(C)OC(C)=O (stereo partly drawn) [LD 022] | 20.67 | 31.18 | 24.88 | 24.54 | −6.95 | −5.28 | −2.48 | −6.24 | 4.73 | 8.99 | 6.92 | 35.89 |  |  |  |  |  |  |  |  | 
